ChEMBL document CHEMBL4177594, “Design, synthesis, and evaluation of salicyladimine derivatives as multitarget-directed ligands against Alzheimer's disease” (Bioorg Med Chem, 2017)
Calls of active or inactive are those of the source. The calls are words filed in the database; no cut-off is given here.

Key:
[1] = target: Amyloid-beta precursor protein (Homo sapiens) (UniProt P05067); assay: Inhibition of self-induced aggregation of amyloid beta (1 to 42 residues) (unknown origin) at 25 uM incubated for 48 hrs by Thioflavin T fluorescence assay relative to control
Amyloid-beta precursor protein (Homo sapiens), sequence (P05067 whole entry, the tested form may be a part): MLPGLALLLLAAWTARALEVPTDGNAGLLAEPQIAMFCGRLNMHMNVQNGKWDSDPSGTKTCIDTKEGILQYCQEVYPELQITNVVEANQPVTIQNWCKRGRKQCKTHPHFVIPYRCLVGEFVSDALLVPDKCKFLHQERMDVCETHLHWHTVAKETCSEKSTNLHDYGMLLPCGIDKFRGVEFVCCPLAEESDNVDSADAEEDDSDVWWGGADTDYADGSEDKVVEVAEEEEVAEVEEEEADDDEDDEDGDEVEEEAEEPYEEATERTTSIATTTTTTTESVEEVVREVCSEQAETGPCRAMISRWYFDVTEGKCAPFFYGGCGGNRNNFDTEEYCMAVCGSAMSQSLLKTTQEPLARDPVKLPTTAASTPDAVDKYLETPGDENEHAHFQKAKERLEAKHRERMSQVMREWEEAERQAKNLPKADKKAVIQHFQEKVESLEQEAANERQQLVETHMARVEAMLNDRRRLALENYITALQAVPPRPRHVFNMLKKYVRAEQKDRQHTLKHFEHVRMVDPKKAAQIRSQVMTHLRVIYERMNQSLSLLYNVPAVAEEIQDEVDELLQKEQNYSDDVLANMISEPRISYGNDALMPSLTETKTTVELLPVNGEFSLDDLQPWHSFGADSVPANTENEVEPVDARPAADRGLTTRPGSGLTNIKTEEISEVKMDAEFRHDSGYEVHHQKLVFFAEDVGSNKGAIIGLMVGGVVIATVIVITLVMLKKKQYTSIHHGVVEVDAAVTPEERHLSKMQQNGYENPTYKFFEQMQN

[2] = target: T1, Amine oxidase [flavin-containing] B (Homo sapiens, UniProt P27338); assay: Inhibition of human MAO-B using p-tyramine as substrate preincubated for 15 mins followed by substrate addition measured after 20 mins by fluorescence-based Amplex Red MAO assay
T1 sequence (P27338 whole entry): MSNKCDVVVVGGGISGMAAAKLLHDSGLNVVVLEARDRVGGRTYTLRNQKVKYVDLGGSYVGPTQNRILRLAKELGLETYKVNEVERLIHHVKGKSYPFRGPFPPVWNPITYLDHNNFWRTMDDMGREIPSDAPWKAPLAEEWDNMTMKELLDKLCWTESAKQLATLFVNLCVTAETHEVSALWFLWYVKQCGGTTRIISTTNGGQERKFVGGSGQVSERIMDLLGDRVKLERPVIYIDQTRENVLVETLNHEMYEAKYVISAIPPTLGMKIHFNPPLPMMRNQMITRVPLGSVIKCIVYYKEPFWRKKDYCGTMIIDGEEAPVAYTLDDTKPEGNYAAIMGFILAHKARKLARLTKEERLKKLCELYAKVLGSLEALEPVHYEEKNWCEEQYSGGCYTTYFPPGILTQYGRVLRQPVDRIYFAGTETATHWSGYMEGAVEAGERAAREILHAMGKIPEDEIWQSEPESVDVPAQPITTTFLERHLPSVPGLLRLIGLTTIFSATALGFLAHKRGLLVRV

[3] = species: Homo sapiens; assay: Selectivity index, ratio of IC50 for human MAO-A to IC50 for human MAO-B
[4] = Antioxidant activity assessed as DPPH radical scavenging activity after 30 mins; type: functional
[5] = target: T2, Amine oxidase [flavin-containing] A (Homo sapiens, UniProt P21397); assay: Inhibition of human MAO-A at 200 uM using p-tyramine as substrate preincubated for 15 mins followed by substrate addition measured after 20 mins by fluorescence-based Amplex Red MAO assay
T2 sequence (P21397 whole entry): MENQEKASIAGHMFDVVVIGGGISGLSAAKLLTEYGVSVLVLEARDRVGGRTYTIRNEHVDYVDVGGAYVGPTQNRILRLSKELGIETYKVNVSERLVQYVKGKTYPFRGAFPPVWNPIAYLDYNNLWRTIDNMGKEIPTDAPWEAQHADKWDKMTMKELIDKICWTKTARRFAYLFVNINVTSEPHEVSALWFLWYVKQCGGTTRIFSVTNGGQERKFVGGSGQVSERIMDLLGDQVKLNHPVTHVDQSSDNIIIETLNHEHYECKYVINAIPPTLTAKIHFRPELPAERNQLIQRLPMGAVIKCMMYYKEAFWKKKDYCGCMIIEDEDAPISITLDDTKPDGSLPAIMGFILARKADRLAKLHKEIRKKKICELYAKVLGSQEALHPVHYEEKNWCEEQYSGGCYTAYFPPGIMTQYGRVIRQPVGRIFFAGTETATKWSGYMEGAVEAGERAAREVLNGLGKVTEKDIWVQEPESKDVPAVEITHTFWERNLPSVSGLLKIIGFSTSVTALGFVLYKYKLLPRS

[6] = tested on: PC-12; assay: Cytotoxicity against rat PC12 cells at 25 uM after 24 hrs by MTT assay; type: cell-based; conditions: pc-12, 24 h
[7] = in vitro; parameters: dose or concentration left out as unconfirmed; conditions: PAMPA
Description: Permeability of the compound at 100 mg/ml after 16 hrs by BBB-PAMPA method

[8] = Antioxidant activity assessed as ABTS radical scavenging activity at 25 uM after 6 mins; type: functional
[9] = target: T2, Amine oxidase [flavin-containing] A; assay: Inhibition of human MAO-A using p-tyramine as substrate preincubated for 15 mins followed by substrate addition measured after 20 mins by fluorescence-based Amplex Red MAO assay
[10] = tested on: PC-12; assay: Neuroprotective activity against H2O2-induced cytotoxicity in rat PC12 cells assessed as increase in cell viability at 25 uM preincubated for 24 hrs followed by H2O2 addition and measured after 24 hrs by MTT assay; type: functional, cell-based

SMILES | inhibition [1] | IC50 [2] | Ratio IC50 [3] | IC50 [4] | inhibition (INH) [5] | Activity [6] | Papp at 16 h [7] | Activity (umolequiv/umol) [8] | IC50 [9] | Activity [10]
Oc1ccccc1/C=N/c1ccc(OCc2ccccc2)cc1 | 63.3% | 25.1 µM | > 3.98 | > 200 µM | Not Active | Non-Toxic | – | – | – | –
CCn1cc(C(=O)O)c(=O)c2cc(F)c(N3CCNC(C)C3)c(F)c21 (configuration not stated) [LOMEFLOXACIN] | – | – | – | – | – | – | 1.59 ×10⁻⁶ cm/s | – | – | –
Oc1ccc2ccccc2c1/C=N/c1ccc(OCc2ccccc2)cc1 | 73.1% | 19.2 µM | > 5.22 | > 200 µM | Not Active | Non-Toxic | – | – | – | –
Oc1ccc(F)cc1/C=N/c1ccc(OCc2ccccc2)cc1 | 84.4% | 15.3 µM | > 6.54 | > 200 µM | Not Active | Non-Toxic | – | – | – | –
COc1cccc(/C=N/c2ccc(OCc3ccccc3)cc2)c1O | 53.4% | 6.5 µM | > 15.4 | > 200 µM | Not Active | Non-Toxic | – | – | – | –
Oc1ccc(Br)cc1/C=N/c1ccc(OCc2ccccc2)cc1 | 54.3% | 31.7 µM | > 3.15 | > 200 µM | Not Active | Non-Toxic | – | – | – | –
Oc1c(Br)cc(Br)cc1/C=N/c1ccc(OCc2ccccc2)cc1 | 66.7% | 10.8 µM | > 9.23 | > 200 µM | Not Active | Non-Toxic | – | – | – | –
Cc1ccc(O)c(/C=N/c2ccc(OCc3ccccc3)cc2)c1 | 61.9% | 24.6 µM | > 4.06 | > 200 µM | Not Active | Non-Toxic | – | – | – | –
O=[N+]([O-])c1ccc(O)c(/C=N/c2ccc(OCc3ccccc3)cc2)c1 | 70.2% | 60.9 µM | > 1.64 | > 200 µM | Not Active | Non-Toxic | – | – | – | –
Oc1ccc(/C=C/c2cc(O)cc(O)c2)cc1 [RESVERATROL] | – | – | – | 82.7 µM | – | – | – | 1.57 | – | –
Cc1ccc(/C=N/c2ccc(OCc3ccccc3)cc2)c(O)c1 | 60.1% | 24.4 µM | > 4.09 | > 200 µM | Not Active | Non-Toxic | – | – | – | –
Oc1cccc(/C=N/c2ccc(OCc3ccccc3)cc2)c1O | 72.5% | 6.87 µM | 1.66 | 13.3 µM | – | Non-Toxic | – | 0.6 | 11.4 µM | Active
Cc1cccc(/C=N/c2ccc(OCc3ccccc3)cc2)c1O | 53.7% | 15.5 µM | > 6.47 | > 200 µM | Not Active | Non-Toxic | – | – | – | –
COc1ccc(O)c(/C=N/c2ccc(OCc3ccccc3)cc2)c1 | 56.6% | 10.7 µM | > 9.34 | > 200 µM | Not Active | Non-Toxic | – | – | – | –
Oc1ccc(Cl)cc1/C=N/c1ccc(OCc2ccccc2)cc1 | 59.6% | 24.8 µM | > 4.03 | > 200 µM | Not Active | Non-Toxic | – | – | – | –
COc1ccc(/C=N/c2ccc(OCc3ccccc3)cc2)c(O)c1 | 69.5% | 23.6 µM | > 4.24 | > 200 µM | Not Active | Non-Toxic | – | – | – | –
Oc1ccc(O)c(/C=N/c2ccc(OCc3ccccc3)cc2)c1 | 49.2% | 1.23 µM | 15.3 | 21.3 µM | – | Non-Toxic | – | 0.97 | 18.8 µM | Active
C[C@]12CC[C@@H]3c4ccc(O)cc4CC[C@H]3[C@@H]1CC[C@@H]2O [ESTRADIOL] | – | – | – | – | – | – | 9.17 ×10⁻⁶ cm/s | – | – | –
Oc1cc(O)c(/C=N/c2ccc(OCc3ccccc3)cc2)c(O)c1 | 88.5% | 10.1 µM | > 9.86 | 23.9 µM | Not Active | Non-Toxic | – | 0.69 | – | inactive
Oc1ccc(/C=N/c2ccc(OCc3ccccc3)cc2)c(O)c1 | 59.8% | 6.78 µM | > 14.8 | > 200 µM | Not Active | Non-Toxic | – | – | – | –
